Experimental data published in PubChem BioAssay AID248 (DTP/NCI, 2004).
Several values for one entry are separate records, joined by “and”; a condition that tells them apart may be missing. Identical values can stand only once. Inconclusive results and toxic doses are left out. Rule as the data show it: active = T/C of 150% or more; inactive = T/C below 125%. Square brackets hold non-standard residues; d marks the D form. Peptide text beside a SMILES is read from it. * marks the point of attachment. ξ: configuration not given here. ξF = NC(Cc1ccccc1)C(=O)O; Cbz = O=C(OCc1ccccc1)*; CH2Cl = ClC*

Test system: L1210 leukemia ip in BDF1 mice, survival T/C
Test: NCI In Vivo Anticancer Drug Screen. Data for tumor model L1210 Leukemia (intraperitoneal) in B6D2F1 (BDF1) mice
Conditions: endpoint: mean survival time, higher = longer survival
Procedure, shortened: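 Read-out is survival time, reported as the treated-group measurement over the vehicle-control measurement.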

[1] = dose: 100.0 mg/kg/injection, schedule: Q01DX009 (ip), vehicle: saline with Tween-80
[2] = dose: 200.0 mg/kg/injection, schedule: Q01DX009 (ip), vehicle: saline with Tween-80
[3] = dose: 100.0 mg/kg/injection, schedule: Q01DX001 (ip), vehicle: saline with Tween-80
[4] = dose: 100.0 mg/kg/injection, schedule: Q04DX002 (ip), vehicle: saline with Tween-80
[5] = dose: 200.0 mg/kg/injection, schedule: Q01DX001 (ip), vehicle: saline with Tween-80
[6] = dose: 200.0 mg/kg/injection, schedule: Q04DX002 (ip), vehicle: saline with Tween-80
[7] = dose: 400.0 mg/kg/injection, schedule: Q01DX001 (ip), vehicle: saline with Tween-80
[8] = dose: 400.0 mg/kg/injection, schedule: Q04DX002 (ip), vehicle: saline with Tween-80
[9] = dose: 100.0 mg/kg/injection, schedule: Q01DX001 (ip), vehicle: saline
[10] = dose: 200.0 mg/kg/injection, schedule: Q01DX001 (ip), vehicle: saline
[11] = dose: 400.0 mg/kg/injection, schedule: Q01DX001 (ip), vehicle: saline
[12] = dose: 100.0 mg/kg/injection, schedule: Q04DX003 (ip), vehicle: saline with Tween-80
[13] = dose: 200.0 mg/kg/injection, schedule: Q04DX003 (ip), vehicle: saline with Tween-80
[14] = dose: 400.0 mg/kg/injection, schedule: Q01DX009 (ip), vehicle: saline with Tween-80
[15] = dose: 50.0 mg/kg/injection, schedule: Q01DX001 (ip), vehicle: saline

Measured: T/C

O=C(CNC(=O)OCc1ccccc1)NCC(=O)NC(Cc1ccccc1)C(=O)CCl (stereo not drawn) (Cbz-Gly-Gly-[ξF]-CH2Cl)
inactive: dose: 12.0 mg/kg/injection, schedule: Q01DX001 (ip), vehicle: Klucel (hydroxypropylcellulose) (HPC) 106 % of control | dose: 25.0 mg/kg/injection, schedule: Q01DX001 (ip), vehicle: Klucel (hydroxypropylcellulose) (HPC) 97 % of control | dose: 25.0 mg/kg/injection, schedule: Q04DX003 (ip), vehicle: Klucel (hydroxypropylcellulose) (HPC) 98 % of control | dose: 50.0 mg/kg/injection, schedule: Q01DX001 (ip), vehicle: Klucel (hydroxypropylcellulose) (HPC) 108 % of control | dose: 50.0 mg/kg/injection, schedule: Q04DX003 (ip), vehicle: Klucel (hydroxypropylcellulose) (HPC) 98 % of control | dose: 100.0 mg/kg/injection, schedule: Q04DX003 (ip), vehicle: Klucel (hydroxypropylcellulose) (HPC) 104 % of control

O=C(CCl)Nc1ccc(Br)cc1
inactive: [1] 109 % of control | [2] 96 % of control

COc1ccc(Cl)cc1NC(=O)C(Cl)(Cl)Cl
inactive: dose: 50.0 mg/kg/injection, schedule: Q01DX001 (ip), vehicle: saline with Tween-80 102 % of control | [3] 88 % of control and 92 % of control | [1] 94 % of control | [4] 100 % of control and 101 % of control | [5] 91 % of control | [2] 95 % of control and 89 % of control | [6] 93 % of control and 98 % of control | [7] 89 % of control | [8] 93 % of control and 94 % of control

NC(=O)c1nccc2ccccc12
inactive: [9] 110 % of control | [10] 107 % of control | [11] 98 % of control

ONc1ccc(Cl)cc1
inactive: dose: 6.25 mg/kg/injection, schedule: Q01DX009 (ip), vehicle: gum acacia 105 % of control | dose: 12.5 mg/kg/injection, schedule: Q01DX001 (ip), vehicle: gum acacia 104 % of control | dose: 12.5 mg/kg/injection, schedule: Q01DX009 (ip), vehicle: gum acacia 100 % of control | dose: 12.5 mg/kg/injection, schedule: Q04DX003 (ip), vehicle: gum acacia 100 % of control | dose: 25.0 mg/kg/injection, schedule: Q01DX001 (ip), vehicle: gum acacia 104 % of control | dose: 25.0 mg/kg/injection, schedule: Q04DX003 (ip), vehicle: gum acacia 98 % of control | dose: 50.0 mg/kg/injection, schedule: Q01DX001 (ip), vehicle: gum acacia 100 % of control

COc1cc(C=O)ccc1OC(=O)Nc1cc(Cl)ccc1C
inactive: [3] 92 % of control | [1] 94 % of control and 97 % of control | [4] 95 % of control and 88 % of control | [12] 97 % of control | [5] 88 % of control | [2] 106 % of control and 115 % of control | [6] 95 % of control and 98 % of control | [13] 95 % of control | [7] 97 % of control | [14] 105 % of control and 90 % of control | [8] 90 % of control and 91 % of control | dose: 400.0 mg/kg/injection, schedule: Q04DX003 (ip), vehicle: saline with Tween-80 103 % of control

N#CC1=C(C#N)C(=O)C(c2ccccc2)=C(c2ccccc2)C1=O
inactive: dose: 5.0 mg/kg/injection, schedule: Q01DX001 (ip), vehicle: saline 97 % of control | dose: 10.0 mg/kg/injection, schedule: Q01DX001 (ip), vehicle: saline 97 % of control | dose: 20.0 mg/kg/injection, schedule: Q01DX001 (ip), vehicle: saline 101 % of control

Cc1nonc1C(N)=O
inactive: dose: 100.0 mg/kg/injection, schedule: Q04DX002 (ip), vehicle: Klucel (hydroxypropylcellulose) (HPC) 109 % of control | dose: 200.0 mg/kg/injection, schedule: Q04DX002 (ip), vehicle: Klucel (hydroxypropylcellulose) (HPC) 102 % of control | dose: 400.0 mg/kg/injection, schedule: Q04DX002 (ip), vehicle: Klucel (hydroxypropylcellulose) (HPC) 95 % of control

COC1OC2COc3ccccc3OC2C(NC#N)C1O (stereo not given)
inactive: [1] 97 % of control | [2] 96 % of control | [14] 89 % of control

CCCCCC(=O)N(CCCC)CCCC
inactive: dose: 100.0 mg/kg/injection, schedule: Q01DX001 (ip), vehicle: carboxymethylcellulose (CMC) 103 % of control | dose: 100.0 mg/kg/injection, schedule: Q01DX009 (ip), vehicle: carboxymethylcellulose (CMC) 97 % of control and 98 % of control | dose: 100.0 mg/kg/injection, schedule: Q04DX002 (ip), vehicle: carboxymethylcellulose (CMC) 102 % of control and 103 % of control | dose: 100.0 mg/kg/injection, schedule: Q04DX003 (ip), vehicle: carboxymethylcellulose (CMC) 98 % of control | dose: 200.0 mg/kg/injection, schedule: Q01DX001 (ip), vehicle: carboxymethylcellulose (CMC) 110 % of control | dose: 200.0 mg/kg/injection, schedule: Q01DX009 (ip), vehicle: carboxymethylcellulose (CMC) 94 % of control and 103 % of control | dose: 200.0 mg/kg/injection, schedule: Q04DX002 (ip), vehicle: carboxymethylcellulose (CMC) 97 % of control and 105 % of control | dose: 200.0 mg/kg/injection, schedule: Q04DX003 (ip), vehicle: carboxymethylcellulose (CMC) 97 % of control | dose: 400.0 mg/kg/injection, schedule: Q01DX001 (ip), vehicle: carboxymethylcellulose (CMC) 106 % of control | dose: 400.0 mg/kg/injection, schedule: Q01DX009 (ip), vehicle: carboxymethylcellulose (CMC) 98 % of control | dose: 400.0 mg/kg/injection, schedule: Q04DX002 (ip), vehicle: carboxymethylcellulose (CMC) 97 % of control and 109 % of control | dose: 400.0 mg/kg/injection, schedule: Q04DX003 (ip), vehicle: carboxymethylcellulose (CMC) 97 % of control

O=C(Nc1ccc(F)c([N+](=O)[O-])c1)N(Cc1ccccc1)c1ccccc1
inactive: dose: 100.0 mg/kg/injection, schedule: Q01DX009 (ip), vehicle: Klucel (hydroxypropylcellulose) (HPC) 101 % of control | dose: 200.0 mg/kg/injection, schedule: Q01DX009 (ip), vehicle: Klucel (hydroxypropylcellulose) (HPC) 104 % of control | dose: 400.0 mg/kg/injection, schedule: Q01DX009 (ip), vehicle: Klucel (hydroxypropylcellulose) (HPC) 98 % of control

O=C1C=CC(=O)c2c1ccc1ccccc21
inactive: dose: 12.5 mg/kg/injection, schedule: Q04DX003 (ip), vehicle: saline 102 % of control | dose: 25.0 mg/kg/injection, schedule: Q04DX003 (ip), vehicle: saline 96 % of control | dose: 50.0 mg/kg/injection, schedule: Q04DX003 (ip), vehicle: saline 101 % of control

CCCCCCCC(=O)CCCCC
inactive: [1] 102 % of control | dose: 100.0 mg/kg/injection, schedule: Q04DX003 (ip), vehicle: saline 98 % of control | [2] 109 % of control | dose: 200.0 mg/kg/injection, schedule: Q04DX003 (ip), vehicle: saline 96 % of control | [14] 100 % of control | dose: 400.0 mg/kg/injection, schedule: Q04DX003 (ip), vehicle: saline 93 % of control

O=NN(CCCCl)C(=O)NC1CCCCC1
inactive: dose: 12.5 mg/kg/injection, schedule: Q01DX001 (ip), vehicle: saline 103 % of control | dose: 25.0 mg/kg/injection, schedule: Q01DX001 (ip), vehicle: saline 108 % of control | [15] 103 % of control | [9] 103 % of control | [10] 102 % of control | dose: 300.0 mg/kg/injection, schedule: Q01DX001 (ip), vehicle: saline 106 % of control | [11] 110 % of control | dose: 500.0 mg/kg/injection, schedule: Q01DX001 (ip), vehicle: saline 100 % of control | dose: 600.0 mg/kg/injection, schedule: Q01DX001 (ip), vehicle: saline 106 % of control | dose: 800.0 mg/kg/injection, schedule: Q01DX001 (ip), vehicle: saline 112 % of control | dose: 1000.0 mg/kg/injection, schedule: Q01DX001 (ip), vehicle: saline 103 % of control

COC(=O)C1OCOC2C(CO)OCOC12 (stereo not given)
inactive: dose: 100.0 mg/kg/injection, schedule: Q04DX002 (ip), vehicle: saline 91 % of control | [12] 91 % of control | dose: 200.0 mg/kg/injection, schedule: Q04DX002 (ip), vehicle: saline 117 % of control | [13] 86 % of control | dose: 400.0 mg/kg/injection, schedule: Q04DX002 (ip), vehicle: saline 106 % of control

COP(=O)(OC)c1nc(P(=O)(OC)OC)nc(P(=O)(OC)OC)n1
inactive: [15] 98 % of control | [9] 93 % of control | [10] 93 % of control | [11] 93 % of control

NC(=S)c1ncc(N)s1
inactive: [4] 92 % of control | [6] 100 % of control | [8] 120 % of control
